From patent publication US20240050358A1, “PERSONAL CARE COMPOSITION” (Conopco, Inc., d/b/a UNILEVER, priority 2020, published 2024)

Tested on: interleukin (IL)-6
Experiment: Human immune cell line THP-1 in vitro assay: IL-6 by ELISA after LPS co-treatment
Type: cell-based
Conditions: PMA-differentiated THP1-XBlue cells co-treated with E. coli LPS and composition for 24 hours; supernatant ELISA; percentage to LPS-treated cells (=100%); three repeats
Protocol: Human Immune Cell Line THP-1 In Vitro Assay The following procedure was used to determine the anti-inflammation efficacy: THP1-XBlue™ (Cat No.: thpx-sp, InvivoGen, San Diego, CA) cells were cultured as suspense in RPMI 1640 medium supplemented with 10% fetal bovine serum (FBS), penicillin (10 U/mL)-streptomycin (10 μg/mL) (Gibco, Invitrogen, Carlsbad, CA). Cells were differentiated in 24-well plates at the density of 5×10^5 cells/well with 100 nM phorbol-12-myristate-13-acetate (PMA) for 72 hours. Cells were then co-treated with pure E. coli lipopolysaccharides (LPS) and various compositions in Table 1. […] Expression of IL-6 was calculated as the percentage to LPS-treated cells which was designated as 100%. P value was analysed by Student's t-test comparing combination groups and individual compound groups (expression of IL-6, three repeats for each group).

CCCCCCC(O)CCCCCCCCCCC(=O)O (stereo not shown) [B, 12-hydroxystearic acid]
Expression of IL-6 (%): 91.9%
